Read-outs that look alike come from different tables or passages of the source.

In assay [1] the target is T1, Dd myosin-2 (DdMyo2) (Dictyostelium discoideum, UniProt P08799).
T1 construct: gene mhcA; motor domain
T1 sequence (P08799 2-762): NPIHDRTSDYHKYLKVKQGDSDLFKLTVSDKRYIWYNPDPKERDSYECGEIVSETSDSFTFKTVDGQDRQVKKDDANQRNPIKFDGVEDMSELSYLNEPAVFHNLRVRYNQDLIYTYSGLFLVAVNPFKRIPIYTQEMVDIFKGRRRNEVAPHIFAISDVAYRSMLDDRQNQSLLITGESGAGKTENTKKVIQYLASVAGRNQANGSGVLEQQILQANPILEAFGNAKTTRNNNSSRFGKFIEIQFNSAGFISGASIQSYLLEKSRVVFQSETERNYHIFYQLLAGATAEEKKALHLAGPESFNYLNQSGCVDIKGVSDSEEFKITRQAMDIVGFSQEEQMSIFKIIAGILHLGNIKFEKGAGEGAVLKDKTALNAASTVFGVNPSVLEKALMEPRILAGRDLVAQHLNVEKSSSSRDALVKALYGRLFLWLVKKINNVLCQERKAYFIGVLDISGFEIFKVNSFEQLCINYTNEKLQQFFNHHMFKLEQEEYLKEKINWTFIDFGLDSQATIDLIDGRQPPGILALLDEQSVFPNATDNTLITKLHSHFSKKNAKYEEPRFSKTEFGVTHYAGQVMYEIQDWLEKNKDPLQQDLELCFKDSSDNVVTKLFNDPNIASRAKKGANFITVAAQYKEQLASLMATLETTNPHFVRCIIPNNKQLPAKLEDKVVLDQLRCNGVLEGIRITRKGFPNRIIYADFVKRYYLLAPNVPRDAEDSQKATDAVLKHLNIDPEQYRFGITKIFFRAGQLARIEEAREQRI
Briefly: biochemical. Further details: inhibition of myosin ATPase activity. The source says: (§1) We set out to identify a myosin class-IX specific inhibitor by screening an in-house compound library comprising halogenated pseudilins and carbazole derivatives, developed to target the ATPase activity of myosins[47],[48]. […] Low micromolar concentrations inhibited Myo9 motor function substantially, reducing sliding velocity and motile fraction of actin filaments in a reproducible and reversible manner (Fig. 1G, H). Importantly, the motor properties of other tested myosins remained unaffected (Fig. 1G). Rabbit fast skeletal muscle heavy meromyosin (skHMM) was prepared as described in ref. [129]. All other myosins were purified from native tissue or recombinant from the following organismal sources: D. discoideum (Dd), O. coniculus (Oc), S. scrofa (Ss), R. norvegicus (Rn), C. elegans (Ce), H. sapiens (Hs). Motor domain constructs of myosin-2, myosin-5a–5b, Ce myosin-9/Rn myosin-9b, were prepared as described previously in refs. [126],[130]–[135]. Hs nonmuscle myosin-2A (NM2a) was purified from SF9 cells using the baculovirus expression system as described in ref. [130] (for more information see Supplementary Table 5). F-actin was prepared according to the protocol by Lehrer and Kerwar[136].

Assay [2] concerns the target T2, Rn myosin-9b (Myo9b) (Rattus norvegicus, UniProt Q63358).
T2 construct: motor domain construct
Briefly: biochemical. Details: inhibition of myosin ATPase activity.
Excerpt: as §1

In assay [3] the target is T1, Dd myosin-2 (DdMyo2). Briefly: biochemical. Further details: binding affinity of compound to purified myosin (technique not given in the excerpts). An excerpt:
(§2) Structural elements responsible for communicating conformational changes along the myosin ATPase cycle, such as the relay helix, the strut loop, and the W-helix, which form a central hub in the myosin motor domain for effective force production, flank the inhibitor binding site (Fig. 1K). The site buries a total protein surface area of 302.9 Å^2. This pocket is not visible in ligand-free DdMyo2 pre-power stroke structures and only formed by rearrangements of the side chains of residues S266 (β7-loop), E467 (relay helix), and K587 (strut) upon binding of the carbazole (Supplementary Fig. 1A). The aromatic carbazole moiety interacts primarily through hydrophobic contacts with F466 (relay helix) and V630 (W-helix), as well as cation-π interactions with K423 (O-helix) (Supplementary Fig. 1B). Four hydrogen bonds stabilize the inhibitor in its binding position: S465 (relay helix) and K587 (strut loop) interact with the hydroxy group of the ligand, and S465 (relay helix) and the main chain of E487 (relay helix) bind to the nitrogen of the carbazole framework. […] Rabbit fast skeletal muscle heavy meromyosin (skHMM) was prepared as described in ref. [129]. All other myosins were purified from native tissue or recombinant from the following organismal sources: D. discoideum (Dd), O. coniculus (Oc), S. scrofa (Ss), R. norvegicus (Rn), C. elegans (Ce), H. sapiens (Hs). Motor domain constructs of myosin-2, myosin-5a–5b, Ce myosin-9/Rn myosin-9b, were prepared as described previously in refs. [126],[130]–[135]. Hs nonmuscle myosin-2A (NM2a) was purified from SF9 cells using the baculovirus expression system as described in ref. [130] (for more information see Supplementary Table 5). F-actin was prepared according to the protocol by Lehrer and Kerwar[136].

Assay [4] addresses T3, DdMyo5b (Dictyostelium discoideum, UniProt P54697).
T3 construct: gene myoJ; motor domain
Nature of the assay: biochemical. Details: binding affinity of compound to purified myosin (technique not given in the excerpts).
Excerpt: as §2

For assay [5], the target named is T4, Ce myosin-9 (Caenorhabditis elegans, UniProt F0IWT2).
T4 construct: gene hum-7; motor domain construct
Nature of the assay: NADH-coupled basal and actin-activated ATPase assay; in vitro actin motility. The assay is classed as biochemical. An excerpt: NADH-coupled basal and actin-activated ATPase assay; in vitro actin motility on Ce myosin-9 | Inhibitory effect of adhibin on Cemyosin-9 and Rnmyosin-9b basal and actin-activated ATPase activities.

Assay [6] has as its target T2, Rn myosin-9b (Myo9b). Briefly: NADH-coupled basal and actin-activated ATPase assay. It is filed as biochemical.

T3 sequence (P54697 whole entry, the tested form may be a part): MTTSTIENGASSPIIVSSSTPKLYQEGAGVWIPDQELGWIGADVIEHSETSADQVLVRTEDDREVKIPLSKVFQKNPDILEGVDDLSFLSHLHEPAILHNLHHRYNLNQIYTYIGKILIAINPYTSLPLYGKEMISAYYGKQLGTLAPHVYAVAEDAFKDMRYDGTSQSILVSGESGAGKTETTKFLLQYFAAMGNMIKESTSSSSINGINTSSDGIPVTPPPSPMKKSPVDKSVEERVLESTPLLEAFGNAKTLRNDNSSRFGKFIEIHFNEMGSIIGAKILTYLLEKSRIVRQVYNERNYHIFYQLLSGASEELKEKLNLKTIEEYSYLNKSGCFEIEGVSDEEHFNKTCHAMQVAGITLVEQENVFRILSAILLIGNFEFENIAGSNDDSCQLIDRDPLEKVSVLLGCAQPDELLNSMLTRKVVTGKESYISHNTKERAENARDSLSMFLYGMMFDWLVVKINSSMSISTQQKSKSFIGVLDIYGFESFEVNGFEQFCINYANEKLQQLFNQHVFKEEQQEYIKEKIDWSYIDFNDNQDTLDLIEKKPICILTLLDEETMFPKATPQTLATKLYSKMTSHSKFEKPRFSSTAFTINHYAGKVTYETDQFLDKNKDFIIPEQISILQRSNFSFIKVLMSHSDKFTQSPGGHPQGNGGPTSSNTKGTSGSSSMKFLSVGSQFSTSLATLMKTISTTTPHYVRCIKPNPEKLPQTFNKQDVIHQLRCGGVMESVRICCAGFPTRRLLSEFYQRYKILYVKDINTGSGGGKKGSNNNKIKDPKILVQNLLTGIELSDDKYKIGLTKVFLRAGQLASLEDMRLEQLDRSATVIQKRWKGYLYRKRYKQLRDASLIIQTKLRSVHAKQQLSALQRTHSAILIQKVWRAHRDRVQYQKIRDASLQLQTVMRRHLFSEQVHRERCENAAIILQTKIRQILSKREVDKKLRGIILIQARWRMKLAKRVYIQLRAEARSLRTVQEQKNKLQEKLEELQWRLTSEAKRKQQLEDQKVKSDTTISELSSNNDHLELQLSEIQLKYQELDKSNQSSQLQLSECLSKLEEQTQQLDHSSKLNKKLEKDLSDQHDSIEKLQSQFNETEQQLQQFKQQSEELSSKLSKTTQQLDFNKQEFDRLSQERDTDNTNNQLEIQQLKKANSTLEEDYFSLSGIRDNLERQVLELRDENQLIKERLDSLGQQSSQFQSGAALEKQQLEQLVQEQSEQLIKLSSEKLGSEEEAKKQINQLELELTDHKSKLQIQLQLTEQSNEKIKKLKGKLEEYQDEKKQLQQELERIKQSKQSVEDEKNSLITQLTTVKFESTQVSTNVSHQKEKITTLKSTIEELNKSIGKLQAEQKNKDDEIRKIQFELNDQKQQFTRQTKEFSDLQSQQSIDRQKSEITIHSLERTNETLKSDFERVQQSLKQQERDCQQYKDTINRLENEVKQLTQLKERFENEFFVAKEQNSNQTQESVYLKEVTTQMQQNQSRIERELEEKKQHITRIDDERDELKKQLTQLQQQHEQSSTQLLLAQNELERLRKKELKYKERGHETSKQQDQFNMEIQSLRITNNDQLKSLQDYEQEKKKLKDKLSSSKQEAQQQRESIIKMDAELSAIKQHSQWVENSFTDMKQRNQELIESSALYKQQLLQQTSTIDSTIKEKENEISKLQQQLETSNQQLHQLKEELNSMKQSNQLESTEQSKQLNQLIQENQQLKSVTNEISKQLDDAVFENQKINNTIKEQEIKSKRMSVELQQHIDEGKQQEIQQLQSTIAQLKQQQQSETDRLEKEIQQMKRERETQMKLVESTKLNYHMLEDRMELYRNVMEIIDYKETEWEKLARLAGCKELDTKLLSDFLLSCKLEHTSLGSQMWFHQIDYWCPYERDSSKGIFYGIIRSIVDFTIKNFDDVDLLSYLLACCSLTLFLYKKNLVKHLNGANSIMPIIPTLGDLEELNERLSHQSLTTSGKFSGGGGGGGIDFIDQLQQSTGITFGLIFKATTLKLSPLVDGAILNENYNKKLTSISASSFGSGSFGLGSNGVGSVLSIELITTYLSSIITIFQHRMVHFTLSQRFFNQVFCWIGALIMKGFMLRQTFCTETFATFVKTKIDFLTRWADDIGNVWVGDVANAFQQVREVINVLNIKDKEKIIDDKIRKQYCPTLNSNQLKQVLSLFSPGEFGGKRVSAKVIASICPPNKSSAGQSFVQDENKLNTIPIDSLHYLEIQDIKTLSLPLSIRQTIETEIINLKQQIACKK
T2 sequence (Q63358 2-954): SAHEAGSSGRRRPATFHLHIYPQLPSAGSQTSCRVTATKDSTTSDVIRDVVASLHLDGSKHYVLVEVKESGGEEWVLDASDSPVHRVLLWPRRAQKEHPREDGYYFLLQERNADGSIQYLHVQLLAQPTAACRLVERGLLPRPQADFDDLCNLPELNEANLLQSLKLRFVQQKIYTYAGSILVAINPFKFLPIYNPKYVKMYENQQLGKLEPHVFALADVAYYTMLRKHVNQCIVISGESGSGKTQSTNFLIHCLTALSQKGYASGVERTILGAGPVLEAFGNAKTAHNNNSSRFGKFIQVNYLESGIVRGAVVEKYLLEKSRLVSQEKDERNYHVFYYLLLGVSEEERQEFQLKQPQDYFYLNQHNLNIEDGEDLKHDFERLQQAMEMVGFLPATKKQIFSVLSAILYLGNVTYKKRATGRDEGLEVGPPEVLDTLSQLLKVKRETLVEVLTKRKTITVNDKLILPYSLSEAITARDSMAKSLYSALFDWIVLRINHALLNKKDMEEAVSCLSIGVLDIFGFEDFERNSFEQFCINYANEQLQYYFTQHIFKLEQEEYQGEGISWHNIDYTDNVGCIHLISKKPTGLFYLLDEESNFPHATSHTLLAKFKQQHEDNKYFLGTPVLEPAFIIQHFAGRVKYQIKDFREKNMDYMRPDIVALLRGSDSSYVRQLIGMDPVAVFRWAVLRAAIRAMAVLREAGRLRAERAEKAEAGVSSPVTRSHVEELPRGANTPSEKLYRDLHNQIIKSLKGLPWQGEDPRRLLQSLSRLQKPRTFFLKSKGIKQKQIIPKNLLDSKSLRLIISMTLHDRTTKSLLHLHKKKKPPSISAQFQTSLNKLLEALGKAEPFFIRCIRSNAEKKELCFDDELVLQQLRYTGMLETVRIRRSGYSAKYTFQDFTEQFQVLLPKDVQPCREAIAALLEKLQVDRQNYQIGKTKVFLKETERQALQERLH
T4 sequence (F0IWT2 entry or part of it): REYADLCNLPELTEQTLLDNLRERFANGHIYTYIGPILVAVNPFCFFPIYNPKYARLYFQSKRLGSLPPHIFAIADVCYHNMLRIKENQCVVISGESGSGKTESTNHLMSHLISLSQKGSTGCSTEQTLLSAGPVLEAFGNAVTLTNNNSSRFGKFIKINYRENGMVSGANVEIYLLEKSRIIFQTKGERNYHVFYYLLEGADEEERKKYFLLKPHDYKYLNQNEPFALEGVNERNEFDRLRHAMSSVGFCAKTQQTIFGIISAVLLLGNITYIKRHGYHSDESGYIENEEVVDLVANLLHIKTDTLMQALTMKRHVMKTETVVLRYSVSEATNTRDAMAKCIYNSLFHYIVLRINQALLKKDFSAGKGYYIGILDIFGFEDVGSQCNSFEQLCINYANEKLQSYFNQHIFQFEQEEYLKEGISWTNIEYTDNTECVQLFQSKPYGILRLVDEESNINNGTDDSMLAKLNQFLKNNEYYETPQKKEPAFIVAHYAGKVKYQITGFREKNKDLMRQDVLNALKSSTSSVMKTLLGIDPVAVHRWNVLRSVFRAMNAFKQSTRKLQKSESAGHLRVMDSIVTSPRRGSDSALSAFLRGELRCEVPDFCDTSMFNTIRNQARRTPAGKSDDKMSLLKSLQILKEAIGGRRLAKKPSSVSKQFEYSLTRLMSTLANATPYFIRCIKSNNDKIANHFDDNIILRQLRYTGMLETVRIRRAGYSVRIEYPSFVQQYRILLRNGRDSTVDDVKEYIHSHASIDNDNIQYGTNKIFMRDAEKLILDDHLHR

The term IC50 denotes the concentration at which inhibition is half-maximal. As a reminder, the Kd is a measure of binding affinity in units of concentration. On to `Cc1ccc2[nH]c3c(O)cc(Br)c(Br)c3c2c1` [compound 5, 3,4-dibromo-6-methyl-9H-carbazol-1-ol], for which the half-maximal inhibitory concentration (IC50) in assay [1] was 22.6 ± 7.5 µM; in assay [2], 2 ± 0.3 µM. The results for the dissociation constant (Kd) in assay [3] and in assay [4] were 7.3 ± 4.1 µM and 33.2 ± 5.2 µM, respectively.
Turning to `OCc1cc(Br)cc2c1[nH]c1ccc(Br)cc12` [compound 12, 3,6-dibromo-1-(hydroxymethyl)carbazole], the IC50 in assay [1] (read-out: IC50) stood at 37.7 ± 9.4 µM; in assay [5] it was 2.6 ± 0.2 µM; in assay [6], 2.5 ± 0.2 µM. In addition, the results for the Kd in assay [3] (read-out: KD) and in assay [4] (read-out: KD) were 14.9 ± 3.2 µM and 1.5 ± 0.5 µM, respectively.

Values taken from article PMC11569205, “An allosteric inhibitor of RhoGAP class-IX myosins suppresses the metastatic features of cancer cells” (Nature Communications, 2024).
